Reference: paper PMC10455339, “Combining the Peptide RWQWRWQWR and an Ethanolic Extract of Bidens pilosa Enhances the Activity against Sensitive and Resistant Candida albicans and C. auris Strains” (Journal of Fungi, 2023)
Ends that are not written are not given here.

How the values were obtained:
[1] = system: C. albicans SC5314; assay: microbe, parasite or virus in culture; assay type: cell-based, Candida albicans; settings: SC5314, 48 h
Description: For the determination of the MICs, the guidelines of the Clinical Laboratory Standards Institute (CLSI BMD-M27-A4) were used with some modifications. Serial dilutions were made, for peptides from 6.25 to 200 µg/mL and for extracts from 31.2 to 2000 µg/mL, with RPMI 1640 medium in a 96-well microdilution plate (100 µL), and then 100 µL of the adjusted inoculum (0.5–2.5 × 10^3 cells/mL) was added and incubated at 37 °C, and visual and spectrophotometric reading (595 nm) was performed at 48 h. Controls: growth control in RPMI or DMSO, control with a known antifungal: FLC, C. albicans SC5314 (1 µg/mL), C. albicans 256 (64 µg/mL), C. auris 435 (8 µg/mL), and C. auris 537 (128 µg/mL), sterility controls correspond to RPMI medium and SS. The MIC was defined as the minimum concentration of peptide or extract that inhibited 50% of growth compared to the control. To determine the minimal fungicidal concentration (MFC), from the concentrations where no growth was observed, including the controls, a subculture was made on SDA and incubated for 24 h at 37 °C. The MFC was defined as the minimum concentration of peptide or extract that eliminated 100% of the growth compared to the control (n = 3).

[2] = system: primary culture of human foreskin fibroblasts; assay type: cell-based; settings: 2 h
Description: The toxicity of the ethanolic extract of B. pilosa, the palindromic peptide, and their combinations was evaluated in a primary culture of human foreskin fibroblasts by the MTT (tetrazolium salt, Sigma-Aldrich) assay, with modifications. Briefly, cells were seeded in 96-well plates at a density of 1 × 10^4 cells and 100 μL per well and allowed to adhere and proliferate for 24 h RPMI medium at 37 °C and 5% CO2.
Following this, the complete medium was replaced with incomplete medium (without 10% fetal bovine serum) for an additional 24 h in order to achieve synchronization. The cells were then incubated at 37 °C and 5% CO2 for 2 h with 100 μL of B. pilosa extract (31.25–2000 µg/mL), peptide at the concentrations evaluated (3.12–200 μg/mL), and additive or synergistic combinations (C 1: 25/250 µg/mL, C 2: 50/62.5 µg/mL, C 3: 100/125 µg/mL, and C 4: 25/31.25 µg/mL). The culture medium was removed, and 100 μL of incomplete medium with 10% MTT was added and incubated at 37 °C and 5% CO2 for 4 h. […] Following a 30 min incubation at 37 °C, the absorbance at 575 nm was measured, using the BioTek ELx800 absorbance reader (Agilent, Santa Clara, USA). […] In addition, the half-maximal inhibitory concentration (IC50) was calculated by plotting viability versus log (concentration).

[3] = system: human red blood cells; assay: Hemolytic activity assay; assay type: cell-based; settings: positive control, Tween-20 (20% v/v) in PBS
Description: The hemolytic activity of the ethanolic extract of B. pilosa, palindromic peptide, and their combinations was analyzed on human red blood cells. Briefly, 5 mL of peripheral blood from a healthy individual was collected in an EDTA tube and centrifuged at 2500 rpm for 7 min. The erythrocyte-rich fraction was suspended in PBS and washed twice by centrifugation. Then, 100 µL of the B. pilosa extracts (15.62–2000 µg/mL), palindromic peptide (1.56–200 µg/mL), or additive or synergistic combinations of peptide and plant extract (combination 1: 25/250 µg/mL, combination 2: 50/62.5 µg/mL, combination 3: 100/125 µg/mL, and combination 4: 25/31.25 µg/mL) was mixed with 100 µL of erythrocytes (2% hematocrit) in round-bottom 96-well plates and incubated at 37 °C for 2 h. Subsequently, the reaction was stopped by centrifuging for 10 min at 2500 rpm. To measure hemoglobin levels, 100 µL of the supernatant containing the hemoglobin released from lysed erythrocytes was transferred to a 96-well plate with a flat bottom, and the absorbance was measured at 450 nm. PBS was used as a negative control, while Tween-20 (20% v/v) in PBS was used as a positive control (n = 3).

Substance | MIC [1] | IC50 [2] | Hemolysis (in words) [3]
RWQWRWQWR-NH2 [Peptide R-1-R] | 67 µM | 175.9 µg/mL | 
Tween-20 |  |  | completely lysed the red blood cells
